Laboratory results reported in patent US20220118051A1, “SELF-ASSEMBLING VEGF NANOPARTICLES” (Northwestern University, priority 2018, published 2022).
Entries after “also recorded” stand apart in the source; their conditions may differ. C16 = N-terminal C16 alkyl chain

Assays:
[1] = test system: ZO-1, Claudin-5 and Occludin; test: Western blot of tight junction proteins in cerebella; format: in vivo, mouse; conditions: SCA1 mice cerebella, normalized to actin
Procedure: (§1) To test for behavioral and pathological improvement mice were treated for a two-week period starting at 24 weeks. Nano-VEGF, mouse rVEGF (R&D systems, Minneapolis, Minn.) or artificial CSF (sham controls) were delivered using the intracerebroventricular route (into the right lateral ventricle with stereotaxic coordinates: A/P −0.5 mm, M/L −1.1 mm, D/V −2.5 mm). using osmotic ALZET pumps; model #1002, Durect) (Cvetanovic et al., 2011; herein incorporated by reference in its entirety). Behavioral assays were performed at 26 weeks; while biochemical and histochemical analysis was performed at 27 weeks (after euthanasia). For electrophysiological experiments, we used 8-10 week-old mice for pump placement (with a similar two-week treatment regimen) since it is difficult to generate good electrophysiological traces from older mice.
(§2) Proteins were extracted from cerebellar tissues using radioimmunoprecipitation assay (RIPA) buffer (50 mM Tris-HCl, pH 8.0, 150 mM NaCl, 1 mM EDTA, 10 mM NaF, 0.5% Sodium deoxycholate, 1% Triton-X 100, 0.1% SDS, protease inhibitors (Sigma)), and resolved on 7.5% SDS-PAGE gel. Densitometric analysis was evaluated using ImageJ 1.46r software (National Institutes of Health, Bethesda, Md., USA). […]

[2] = test system: SCA1 knock-in mice (SCA1154Q/2Q); test: Gait analysis on transparent treadmill (Digigait); format: in vivo, mouse; conditions: tested up to 24 cm/s, untreated SCA1 mice barely walk at 5 cm/s
Procedure: as §1
Gait Analysis: Mice were placed on a transparent treadmill belt connected to a high-speed digital video camera (Digigait© system; Mouse Specifics, Inc.). The speed of the treadmill was set to the minimum of 5 cm/s up to maximum tolerated speed (maxed out at 24 cm/s). The performance of mice on the treadmill at different speeds was recorded with digital video camera.

[3] = test system: cerebellar microvasculature; test: Collagen IV immunostaining of cerebellar microvessels (AngioTool); format: in vivo, mouse; conditions: SCA1 mice cerebella
Procedure: as §1
(§3) 27-week-old mice (post treatment and post behavioral analysis) were anesthetized by isoflurane inhalation and were perfused with ice-cold PBS, followed by 4% paraformaldehyde in PBS (Israeli et al., 2016; herein incorporated by reference in its entirety). The brains were post-fixed in 4% paraformaldehyde for 24 hrs, followed by tissue saturation in 30% sucrose for 48-72 hrs. […] After three washes in TBST, signals were detected using according secondary antibodies for 2 hours at RT. […]

Purkinje cells [4] = test: Calbindin staining, Purkinje cell dendritic length; format: in vivo, mouse; conditions: SCA1 mice at 27 weeks; vs aCSF
Procedure: as §1, §3

Purkinje cells [5] = test: Electrophysiological slice recordings, cell-attached, spontaneous firing; format: in vivo, mouse; conditions: SCA1 mice treated from 8-10 weeks for two weeks; vs vehicle (aCSF)
Procedure: as §1
Mice were anesthetized with isoflurane and killed by decapitation. The brains were removed from the skull and placed in warm (30-33° C.) artificial cerebrospinal fluid (ACSF) containing (in mM): 125 NaCl, 25 NaHCO3, 2.5 KCl, 1.25 NaH2PO4, 0.5 CaCl2), 7 MgCl2, 75 sucrose and 25 glucose, equilibrated with 95% O2 and 5% CO2 (pH 7.4). 300 μm thick para-sagittal cerebellar slices were cut using a vibratome (Leica VT1200) and stored in the same solution at 34° C. for 15 min and then at 20-22° C. until used (<6 hours). […] Cells were recorded in the I-Clamp fast mode. […]

[6] = test system: SCA1 knock-in mice (SCA1154Q/2Q); test: Rotating rod assay (accelerating rotarod); format: in vivo, mouse; conditions: SCA1 mice at 26 weeks; for rotarod performance: after two-week ICV delivery from 24 weeks, compared to aCSF-treated SCA1 mice
Procedure: as §1
Rotating Rod Assay: 26-week-old mice (post-treatment) were placed on a rotating rod apparatus (Ugo Basile) that accelerates linearly from 4 to 40 rotations per minute over a 5-minute period. Mice were subjected to four trials per day for four consecutive days, each trial lasting to a maximum of ten minutes, with at least ten minutes of rest between each trial. The average performances for each day were plotted, and statistical differences between the different groups were analyzed using repeated measures two-way ANOVA (followed by Tukey's honest significant difference post-hoc test for multiple comparisons). All statistical analyses here and elsewhere were performed using GraphPad Prism 6 software (GraphPad Software, La Jolla Calif. USA). Data were considered significant for p<0.05. Data are expressed as mean±SEM.

VEGFR2 = molecular target: T1, VEGFR2 (Mus musculus, UniProt P35918); test: Phospho-VEGFR2 ELISA on cerebellar lysates; format: in vivo
T1 construct: Cerebellar lysates were prepared in 2× cell lysis buffer; from tissue; host or cells: mouse cerebellum (SCA1 154Q/2Q knock-in and wild-type mice)
Procedure: as §1
Phospho-VEGFR2 ELISA was performed using PathScan® Phospho-VEGFR2 (Ty1175) Sandwich ELISA kit (7335, Cell Signaling), according to manufacturer's instruction. Cerebellar lysates were prepared in 2× cell lysis buffer, and undiluted tissue lysates were incubated in 96-well plates coated with phosphor-VEGFR2 primary antibody overnight at 4° C. Wells were washed several times, and detection antibody was added to the well and incubated for 1 hr at 37C and with HRP-conjugated secondary antibody for 30 min at 37° C. Signals were detected with 3,3′,5,5′-Tetramethylbenzidine (TMB) substrate and sulfuric acid were added to stop the reaction. Absorbance was read at 450 nm within 30 min after stopping the reaction.

Ataxin-1 inclusions = test: Immunohistochemistry of Ataxin-1 inclusions in hippocampal CA1; format: in vivo, mouse; conditions: SCA1 mice, 27 weeks; vs aCSF
Procedure: as §1
To quantify the percentage of cells with ataxin-1 inclusions in the CA1 regions of the hippocampus, brain sections were stained for ataxin-1 (mouse anti-Ataxin-1 11NQ clone N76/3; NeuroMab, 1:1000) and counterstained with DAPI. The number of cells with ataxin-1 inclusions in each defined region of interest was normalized to the number of cells stained with DAPI only. Statistical analysis was performed using unpaired t test. […]

[7] = cited from earlier work
Ataxin-1 = test: Western blot of Ataxin-1; format: in vivo, mouse; conditions: SCA1 mice, two weeks of treatment
Procedure: as §1, §2

[8] = cited from earlier work; remark: listed apart in the source
[9] = SCA1 mice, cerebellar lysates, vs aCSF

T1 sequence (P35918 20-1345): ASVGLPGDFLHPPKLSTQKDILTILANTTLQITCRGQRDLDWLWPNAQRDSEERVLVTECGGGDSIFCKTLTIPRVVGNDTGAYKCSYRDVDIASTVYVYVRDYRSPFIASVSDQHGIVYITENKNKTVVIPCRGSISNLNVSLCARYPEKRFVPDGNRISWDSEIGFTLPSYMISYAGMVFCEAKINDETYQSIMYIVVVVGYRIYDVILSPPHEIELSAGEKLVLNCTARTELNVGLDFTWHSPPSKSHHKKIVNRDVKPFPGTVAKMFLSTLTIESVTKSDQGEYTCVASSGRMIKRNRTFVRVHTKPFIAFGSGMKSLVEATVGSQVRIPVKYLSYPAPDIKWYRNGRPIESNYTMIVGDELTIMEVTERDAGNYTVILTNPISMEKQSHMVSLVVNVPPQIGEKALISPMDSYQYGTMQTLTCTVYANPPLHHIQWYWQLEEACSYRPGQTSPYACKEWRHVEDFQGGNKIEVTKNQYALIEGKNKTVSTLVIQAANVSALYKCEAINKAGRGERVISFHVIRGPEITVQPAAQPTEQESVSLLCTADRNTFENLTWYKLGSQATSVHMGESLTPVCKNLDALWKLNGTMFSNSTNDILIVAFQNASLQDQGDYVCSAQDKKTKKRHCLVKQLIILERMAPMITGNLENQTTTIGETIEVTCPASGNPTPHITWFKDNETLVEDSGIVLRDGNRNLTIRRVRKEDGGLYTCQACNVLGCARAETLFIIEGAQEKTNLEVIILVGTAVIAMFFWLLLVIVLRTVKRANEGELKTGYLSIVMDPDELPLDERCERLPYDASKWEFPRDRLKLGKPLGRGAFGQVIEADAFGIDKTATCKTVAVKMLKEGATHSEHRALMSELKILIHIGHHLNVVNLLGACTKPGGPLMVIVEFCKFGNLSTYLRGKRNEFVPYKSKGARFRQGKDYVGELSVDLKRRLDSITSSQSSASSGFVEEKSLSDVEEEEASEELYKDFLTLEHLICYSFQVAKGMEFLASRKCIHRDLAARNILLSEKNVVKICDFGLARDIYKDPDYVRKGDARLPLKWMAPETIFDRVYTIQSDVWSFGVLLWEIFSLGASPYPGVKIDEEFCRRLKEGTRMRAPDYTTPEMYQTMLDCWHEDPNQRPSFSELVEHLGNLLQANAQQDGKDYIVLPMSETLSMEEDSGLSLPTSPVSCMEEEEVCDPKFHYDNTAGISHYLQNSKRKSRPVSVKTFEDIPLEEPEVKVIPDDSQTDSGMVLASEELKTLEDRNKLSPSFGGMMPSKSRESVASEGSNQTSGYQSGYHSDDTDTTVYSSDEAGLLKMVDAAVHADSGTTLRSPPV

Molecule	levels of capillary proteins (tight junction markers ZO-1, Claudin-4, and Occludin) [1]	treadmill speed at which treated mice could walk and even run [2] [cm/s]	average vessel length, improvement compared with rVEGF [3]	branching index, improvement compared with rVEGF [3]	Purkinje cell dendritic length (calbindin staining) (Purkinje cells [4])	spontaneous firing of Purkinje cells (Purkinje cells [5])	rotarod performance [6]	rotarod performance ([6]; listed as Nano-VEGF)	rotarod improvement, nano-VEGF compared with rVEGF ([6]; nano-VEGF 20.0 μg vs rVEGF 2.5 μg over two weeks ICV)	VEGFR2 phosphorylation level (VEGFR2; [9])	VEGFR2 phosphorylation level (VEGFR2; wild-type (WT) mice)	percentage of cells with Ataxin-1 inclusions in the CA1 of hippocampi (Ataxin-1 inclusions)	bioequivalence relative to rVEGF ([7]; functional studies in mouse hind-limb ischemia model, basis for dose 20.0 μg vs 2.5 μg)	time detectable post-injection ([7]; ischemic limb model)	retention of particles in tissue ([7]; mouse hind-limb ischemia model)	Ataxin-1 protein levels (Ataxin-1)	half-life in vivo [8]
C16-V2A2K3G-KLTWQELYQLKYKGI (C16-VVAAKKKGKLTWQELYQLKYKGI-NH2) [nano-VEGF, VEGF peptide (mimics VEGF residues 17-25) linked at N terminus to K3G, V2A2 β-domain and C16 alkyl chain; self-assembling peptide amphiphile]	more effective than rVEGF	17	greater improvement	greater improvement	significantly increase dendritic length	significantly faster and more regular firing; also recorded: increases firing in Purkinje cells	performed markedly better than control SCA1 mice treated with artificial CSF	improved rotarod performance	tended to produce a greater improvement than rVEGF; also recorded: more effective	rescued	did not upregulate phosphorylation of VEGFR2	does not differ from that of aCSF-treated mice	approximately eight times that of rVEGF	up to 4 weeks	retained in tissue even four weeks after delivery	does not alter Ataxin-1 levels	–
rVEGF: mouse recombinant VEGF (R&D systems) (protein) APTTEGEQKSHEVIKFMDVYQRSYCRPIETLVDIFQEYPDEIEYIFKPSCVPLMRCAGCCNDEALECVPTSESNITMQIMRIKPHQSQHIGEMSFLQHSRCECRPKKDRTKPENHCEPCSERRKHLFVQDPQTCKCSCKNTDSRCKARQLELNERTCRCDKPRR	–	17	–	–	significantly increase dendritic length	–	performed markedly better than control SCA1 mice treated with artificial CSF; also recorded: improved rotarod performance	–	–	rescued	did not upregulate phosphorylation of VEGFR2	–	–	–	–	–	about 30 minutes
